According to ChEMBL document CHEMBL1201862, “PubChem BioAssay data set” (2004):
Active and inactive are the calls of the source.

Tests used:
[1] = biological target: T1, Probable nicotinate-nucleotide adenylyltransferase (Staphylococcus aureus (strain N315), UniProt P65502); assay type: functional, Staphylococcus aureus subsp. aureus N315;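 on IC50 Mean: confirmatory dose-response retesting of NadD inhibitor hits first found in an ultra-high-throughput screen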
Prothrombin = Prothrombin (Homo sapiens, UniProt P00734); assay: Thrombin 1536 HTS Dose Response Confirmation. [Related pubchem assays: 1046 (Thrombin 1536 HTS; hits were confirmed in this assay)]; assay type: functional
[2] = biological target: T1, Probable nicotinate-nucleotide adenylyltransferase; assay type: functional, Staphylococcus aureus subsp. aureus N315; conditions: read-out: IC50_Mean
[3] = HEp-2 cell cytotoxicity, dose response, cytotoxicity control for RSV inhibitor project, HTS (AID 2410); assay type: functional; conditions: human respiratory syncytial virus
[4] = HEK293 cell cytotoxicity, dose response, cytotoxicity control, plate reader, cherry-picked samples (AID 743446); assay type: functional, cell-based
[5] = inhibitors of SNCA 5'UTR-driven reporter translation, confirmation, H4 neuroglioma cells, luminescence (AID 1988); assay type: functional, cell-based
[6] = inhibitors of firefly luciferase expression or activity, dose response, H4 neuroglioma cells, luminescence (AID 1990); assay type: functional, cell-based
HEK293 = assay: inhibitors of LMP1-driven NF-kB reporter, dose response, cell-based, HEK293, luciferase, cherry-pick (AID 588343); assay type: functional; conditions: Homo sapiens
[7] = LGR2 antagonists, dose response, cell-based, HEK293, CRE-luciferase reporter, cherry pick, set 2 (AID 743343); assay type: functional;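 further: transfected cells were stimulated with diluted bursicon conditioned medium after compound addition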
[8] = MC4R antagonists, dose response, counter-screen for LGR2 antagonist project, cell-based, plate reader, cherry pick (AID 743444); assay type: functional;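 further: transfected HEK 293 cells stimulated with alpha-MSH peptide; potency of inhibitors of the alpha-MSH evoked signal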
[9] = Luminescence Cell-Based Dose Response HTS to Identify Inhibitors of 5'UTR Stem-Loop Driven Prion Protein mRNA Translation in H4 Neuroglioblastoma Cells. [Related pubchem assays: 1827 (Project Summary), 1813 (Primary HTS)]; assay type: functional
Protein RecA = biological target: T2, Protein RecA (Mycobacterium tuberculosis, UniProt P9WHJ3); assay: Fluorescence Cell-Free Homogeneous Dose Retest to Identify Inhibitors of RecA-Intein Splicing Activity. [Related pubchem assays (depositor defined):AID2097, AID2223, AID489010, AID492950]; assay type: functional
T2 sequence (P9WHJ3 whole entry): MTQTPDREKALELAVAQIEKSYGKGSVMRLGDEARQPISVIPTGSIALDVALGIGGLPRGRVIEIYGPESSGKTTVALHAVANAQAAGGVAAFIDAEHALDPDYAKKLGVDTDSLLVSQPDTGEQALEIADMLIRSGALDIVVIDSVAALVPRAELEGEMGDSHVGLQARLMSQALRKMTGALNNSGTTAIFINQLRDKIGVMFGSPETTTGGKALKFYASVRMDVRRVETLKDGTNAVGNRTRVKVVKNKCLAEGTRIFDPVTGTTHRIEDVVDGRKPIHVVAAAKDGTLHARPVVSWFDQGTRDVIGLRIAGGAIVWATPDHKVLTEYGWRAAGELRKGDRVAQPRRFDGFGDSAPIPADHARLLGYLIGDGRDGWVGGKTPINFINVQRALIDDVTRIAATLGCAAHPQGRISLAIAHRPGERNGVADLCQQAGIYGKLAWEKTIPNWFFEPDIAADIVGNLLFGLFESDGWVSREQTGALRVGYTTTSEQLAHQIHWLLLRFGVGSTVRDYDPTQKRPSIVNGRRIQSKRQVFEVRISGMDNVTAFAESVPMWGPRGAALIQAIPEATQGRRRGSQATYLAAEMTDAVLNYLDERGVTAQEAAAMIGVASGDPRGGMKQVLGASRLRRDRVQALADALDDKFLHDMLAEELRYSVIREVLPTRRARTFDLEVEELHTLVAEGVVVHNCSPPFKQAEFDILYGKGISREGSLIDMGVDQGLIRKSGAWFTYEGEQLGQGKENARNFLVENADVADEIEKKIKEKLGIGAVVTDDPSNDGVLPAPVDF

[10] = biological target: T3, Apoptotic protease-activating factor 1 (Homo sapiens, UniProt O14727); assay type: functional
T3 sequence (O14727 whole entry): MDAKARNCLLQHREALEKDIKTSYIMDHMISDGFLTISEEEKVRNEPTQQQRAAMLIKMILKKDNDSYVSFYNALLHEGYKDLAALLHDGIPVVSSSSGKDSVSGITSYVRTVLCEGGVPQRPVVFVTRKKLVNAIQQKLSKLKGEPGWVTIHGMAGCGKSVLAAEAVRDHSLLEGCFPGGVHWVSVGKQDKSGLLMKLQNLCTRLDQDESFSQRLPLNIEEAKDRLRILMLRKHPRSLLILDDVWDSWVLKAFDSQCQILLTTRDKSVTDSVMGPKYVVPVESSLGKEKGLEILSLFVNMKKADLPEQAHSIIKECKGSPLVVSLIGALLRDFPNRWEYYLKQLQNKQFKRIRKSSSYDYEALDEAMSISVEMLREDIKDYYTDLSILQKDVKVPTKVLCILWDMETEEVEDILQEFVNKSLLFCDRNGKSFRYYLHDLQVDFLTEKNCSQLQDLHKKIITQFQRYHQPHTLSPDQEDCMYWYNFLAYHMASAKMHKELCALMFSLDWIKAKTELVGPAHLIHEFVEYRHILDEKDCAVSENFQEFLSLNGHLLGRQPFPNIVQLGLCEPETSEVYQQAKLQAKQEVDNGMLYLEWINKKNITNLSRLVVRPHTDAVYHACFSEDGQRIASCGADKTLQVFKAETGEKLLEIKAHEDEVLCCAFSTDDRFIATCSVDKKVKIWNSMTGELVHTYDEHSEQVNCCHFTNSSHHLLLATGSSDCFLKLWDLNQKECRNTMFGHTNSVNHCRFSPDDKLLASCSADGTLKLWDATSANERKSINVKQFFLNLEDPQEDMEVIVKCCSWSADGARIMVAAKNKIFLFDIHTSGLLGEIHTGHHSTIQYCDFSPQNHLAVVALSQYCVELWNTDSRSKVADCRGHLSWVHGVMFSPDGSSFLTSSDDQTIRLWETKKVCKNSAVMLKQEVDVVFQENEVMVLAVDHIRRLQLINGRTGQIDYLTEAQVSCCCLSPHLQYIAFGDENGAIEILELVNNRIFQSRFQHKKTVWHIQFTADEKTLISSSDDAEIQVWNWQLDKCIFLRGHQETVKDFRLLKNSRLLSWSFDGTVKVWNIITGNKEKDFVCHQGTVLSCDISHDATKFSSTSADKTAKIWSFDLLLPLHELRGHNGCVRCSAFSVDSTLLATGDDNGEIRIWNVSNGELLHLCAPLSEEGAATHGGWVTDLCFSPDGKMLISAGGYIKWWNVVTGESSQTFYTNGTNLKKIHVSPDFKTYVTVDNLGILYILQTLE

[11] = biological target: T4, Replicative DNA helicase DnaB (Mycobacterium tuberculosis, UniProt P9WMR3); assay: DnaB intein splicing inhibitors, dose response, biochemical, cell-free fluorescence (AID 449749); assay type: functional
T4 sequence (P9WMR3 whole entry): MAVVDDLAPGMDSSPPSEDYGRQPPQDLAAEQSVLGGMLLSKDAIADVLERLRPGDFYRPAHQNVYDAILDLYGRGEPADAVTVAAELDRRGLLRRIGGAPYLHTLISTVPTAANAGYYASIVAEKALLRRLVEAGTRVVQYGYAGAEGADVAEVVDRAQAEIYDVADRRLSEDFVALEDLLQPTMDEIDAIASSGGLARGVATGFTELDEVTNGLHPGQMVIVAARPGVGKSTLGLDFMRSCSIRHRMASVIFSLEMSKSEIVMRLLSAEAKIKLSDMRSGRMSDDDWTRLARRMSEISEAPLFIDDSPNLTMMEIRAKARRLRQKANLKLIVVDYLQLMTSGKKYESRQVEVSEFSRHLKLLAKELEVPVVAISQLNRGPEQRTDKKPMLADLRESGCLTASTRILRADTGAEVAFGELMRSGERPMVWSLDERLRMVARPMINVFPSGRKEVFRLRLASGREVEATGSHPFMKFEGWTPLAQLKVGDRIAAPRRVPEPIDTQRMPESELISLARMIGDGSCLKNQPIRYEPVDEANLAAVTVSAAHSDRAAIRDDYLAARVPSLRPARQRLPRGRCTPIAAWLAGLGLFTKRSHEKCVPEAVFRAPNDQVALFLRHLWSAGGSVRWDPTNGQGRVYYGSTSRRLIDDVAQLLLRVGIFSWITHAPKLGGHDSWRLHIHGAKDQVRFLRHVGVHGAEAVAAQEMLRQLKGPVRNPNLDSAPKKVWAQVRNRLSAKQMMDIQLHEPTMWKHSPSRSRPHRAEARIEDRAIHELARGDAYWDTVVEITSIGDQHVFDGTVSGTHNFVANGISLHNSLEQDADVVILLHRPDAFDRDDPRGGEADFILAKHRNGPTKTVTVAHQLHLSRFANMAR

[12] = biological target: Glucose-6-phosphate 1-dehydrogenase (Homo sapiens, UniProt P11413); assay: human G6PD enzyme inhibitors, dose response, selectivity assay for P. falciparum G6PD inhibitor project, biochemical, fluorescence (AID 504792); assay type: functional
P388/ADR = assay: cells; assay type: functional; conditions: Mus musculus
SN12K1 = assay: cells; assay type: functional; conditions: Homo sapiens
P388 = assay: cells; assay type: functional; conditions: Mus musculus
[13] = biological target: T5, Heat shock factor protein 1 (Mus musculus, UniProt P38532); assay: HSF1 potentiators in luciferase reporter cells, confirmation, cell-based, NIH3T3, luminescence, dose retest (AID 435004); assay type: functional;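 further: stress induced by proteasome inhibitor MG132 added 30 min after compound; luciferase reporter driven by HSF1 response element in NIH3T3 cells; actives raise luminescence as potentiators of the MG132 stress response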
T5 sequence (P38532 whole entry): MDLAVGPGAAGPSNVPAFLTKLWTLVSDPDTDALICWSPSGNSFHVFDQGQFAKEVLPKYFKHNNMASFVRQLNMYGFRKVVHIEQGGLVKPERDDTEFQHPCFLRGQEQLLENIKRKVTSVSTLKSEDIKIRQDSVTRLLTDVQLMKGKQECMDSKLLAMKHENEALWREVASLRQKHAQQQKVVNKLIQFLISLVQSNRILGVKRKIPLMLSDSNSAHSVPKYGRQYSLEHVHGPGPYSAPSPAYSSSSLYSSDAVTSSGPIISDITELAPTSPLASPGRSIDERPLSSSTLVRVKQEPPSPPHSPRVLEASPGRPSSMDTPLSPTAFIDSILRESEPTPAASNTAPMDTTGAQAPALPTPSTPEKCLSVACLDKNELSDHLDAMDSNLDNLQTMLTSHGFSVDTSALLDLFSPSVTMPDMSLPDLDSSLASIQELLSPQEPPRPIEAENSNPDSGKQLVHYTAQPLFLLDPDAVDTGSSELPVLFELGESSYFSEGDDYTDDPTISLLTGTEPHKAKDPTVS

[14] = biological target: Disintegrin and metalloproteinase domain-containing protein 17 (Homo sapiens, UniProt P78536); assay: exosite inhibitors of ADAM17, dose response, biochemical (AID 743260)
Sequence of Disintegrin and metalloproteinase domain-containing protein 17 (P78536 whole entry, the tested form may be a part): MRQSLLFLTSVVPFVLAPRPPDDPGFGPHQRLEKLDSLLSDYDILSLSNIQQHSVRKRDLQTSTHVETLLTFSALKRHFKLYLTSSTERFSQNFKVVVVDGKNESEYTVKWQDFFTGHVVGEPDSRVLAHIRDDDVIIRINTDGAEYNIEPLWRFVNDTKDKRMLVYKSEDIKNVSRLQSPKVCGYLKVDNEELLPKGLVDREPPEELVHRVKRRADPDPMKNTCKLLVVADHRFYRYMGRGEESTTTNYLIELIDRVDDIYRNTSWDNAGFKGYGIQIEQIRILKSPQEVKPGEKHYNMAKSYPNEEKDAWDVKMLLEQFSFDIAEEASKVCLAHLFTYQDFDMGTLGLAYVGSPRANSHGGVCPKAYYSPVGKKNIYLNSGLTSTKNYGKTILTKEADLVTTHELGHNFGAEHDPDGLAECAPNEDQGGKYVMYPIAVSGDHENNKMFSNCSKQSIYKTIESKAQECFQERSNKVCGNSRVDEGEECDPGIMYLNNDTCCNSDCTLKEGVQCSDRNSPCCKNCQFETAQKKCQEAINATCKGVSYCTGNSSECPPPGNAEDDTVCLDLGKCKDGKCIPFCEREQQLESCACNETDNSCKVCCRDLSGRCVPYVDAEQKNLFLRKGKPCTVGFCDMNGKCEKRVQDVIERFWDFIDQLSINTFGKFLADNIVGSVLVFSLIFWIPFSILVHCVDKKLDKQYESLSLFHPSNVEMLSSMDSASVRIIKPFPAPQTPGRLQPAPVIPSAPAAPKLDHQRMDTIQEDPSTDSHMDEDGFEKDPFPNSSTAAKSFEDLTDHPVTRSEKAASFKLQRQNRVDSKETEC

T1 sequence (P65502 whole entry): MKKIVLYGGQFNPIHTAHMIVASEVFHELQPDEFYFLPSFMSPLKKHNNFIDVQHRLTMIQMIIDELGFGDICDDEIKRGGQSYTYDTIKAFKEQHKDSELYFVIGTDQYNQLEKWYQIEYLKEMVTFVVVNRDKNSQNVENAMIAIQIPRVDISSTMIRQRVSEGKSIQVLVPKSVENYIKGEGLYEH
Sequence of Glucose-6-phosphate 1-dehydrogenase (P11413 whole entry): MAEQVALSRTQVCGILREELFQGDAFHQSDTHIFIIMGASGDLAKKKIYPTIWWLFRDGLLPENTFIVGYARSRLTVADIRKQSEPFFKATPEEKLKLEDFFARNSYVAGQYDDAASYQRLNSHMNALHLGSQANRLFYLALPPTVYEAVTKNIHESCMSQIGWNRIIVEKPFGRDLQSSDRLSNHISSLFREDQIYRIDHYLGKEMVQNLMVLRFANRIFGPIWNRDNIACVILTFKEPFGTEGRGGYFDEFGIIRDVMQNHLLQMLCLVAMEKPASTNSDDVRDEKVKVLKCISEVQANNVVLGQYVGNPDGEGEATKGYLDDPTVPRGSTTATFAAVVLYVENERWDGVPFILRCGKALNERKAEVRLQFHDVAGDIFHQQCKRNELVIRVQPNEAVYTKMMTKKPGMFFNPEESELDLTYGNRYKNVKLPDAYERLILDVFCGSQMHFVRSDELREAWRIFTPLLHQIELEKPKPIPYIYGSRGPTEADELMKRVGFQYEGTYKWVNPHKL

Cn1c(SCC(=O)N2c3ccccc3CCc3ccccc32)nnc1-c1cc2ccccc2cc1O
IC50 [1]: 7.15 µM (active) | IC50 (Prothrombin): > 50 µM (not active) | IC50 [2]: 24.5 µM (active) | CC50 [3]: > 50 µM (active)

Cc1csc(SCC(=O)NCc2ccccc2Cl)n1
IC50 (Prothrombin): > 50 µM (not active)

Cc1ccc(C(=O)Nc2ccc3c(c2)OCCO3)c(Cl)c1
AC50 [4]: > 52 µM (inactive) | EC50 [5]: 3.89 µM (active) | EC50 [6]: 6.61 µM (inconclusive) | AC50 (HEK293): 1.27 µM (active) | AC50 [7]: 3.65 µM (active) | AC50 [8]: 3.76 µM (active) | EC50 [9]: 5.14 µM (active)

COc1ccc(OCC(=O)Nc2cccc3ncccc23)cc1
IC50 (Prothrombin): > 50 µM (not active)

CC(=O)Nc1ccc(S(=O)(=O)[N-]C2=C(n3cc[n+](-c4ccccn4)c3)C(=O)c3ccccc3C2=O)cc1
EC50 (Protein RecA): 3.46 µM (active) | IC50 [10]: 6.71 µM (active) | AC50 [11]: 3.92 µM (active) | IC50 [12]: > 80 µM (inactive)

CCCNC1=C(C)C(=O)C2=C(C1=O)[C@H](COC(N)=O)[C@]1(OC)[C@@H]3N[C@@H]3CN21
GI50 (P388/ADR): 4.66 µM (inactive) | GI50 (SN12K1): 4.36 µM (inactive) | GI50 (P388): 0.32 µM (active)

Cc1ccc(C(C)(C)C[P+](C)(c2ccccc2)c2ccccc2)cc1
GI50 (P388/ADR): > 100 µM (inactive) | GI50 (SN12K1): 6.49 µM (inactive) | GI50 (P388): 0.508 µM (active)

COc1ccc2c(c1)c1c(C)c3cnccc3c(C)c1n2CCCN
GI50 (P388/ADR): 0.185 µM (active) | GI50 (SN12K1): 0.102 µM (active) | GI50 (P388): 0.0505 µM (active)

CC(=O)Nc1cccc(/N=N/N(C)C)c1
GI50 (P388/ADR): > 100 µM (inactive) | GI50 (SN12K1): > 57.5 µM (inactive) | GI50 (P388): > 100 µM (inactive)

CCCC(O)C(NC(=O)CCl)C(=O)O (configuration not stated)
GI50 (P388/ADR): > 100 µM (inactive) | GI50 (SN12K1): > 100 µM (inactive) | GI50 (P388): > 100 µM (inactive)

CSCCC(NC(=O)C(Cc1ccccc1)NC(=O)CNC(=O)CNC(=O)C(N)Cc1ccc(O)cc1)C(=O)O (configuration not stated)
GI50 (P388/ADR): > 100 µM (inactive) | GI50 (SN12K1): > 100 µM (inactive) | GI50 (P388): > 100 µM (inactive)

COC(=O)c1cccc(Cn2c(Cl)c(/C=N/Nc3ccccc3C)sc2=O)c1
EC50 [13]: 61.2 µM (active) | IC50 [14]: > 69.5 µM (inactive)
